# Laboratory results from patent US8106055B2, “Substituted amide compounds” (Gruenenthal GmbH, priority 2007, dated 2012).
# Where two headings read alike, the source gives them in different places.
# How the values were obtained:
# human μ opiate receptor = molecular target: T1, human μ opiate receptor (Homo sapiens, UniProt P35372); assay: Affinity for the human μ opiate receptor ([3H]-naloxone displacement, CHO-K1 receptor membrane preparation, SPA); type: binding
# T1 construct: purchased PerkinElmer Life Sciences, Zaventem, Belgium RB-HOM; host or cells: CHO-K1 cells (membrane preparation)
# T1 sequence (P35372 whole entry): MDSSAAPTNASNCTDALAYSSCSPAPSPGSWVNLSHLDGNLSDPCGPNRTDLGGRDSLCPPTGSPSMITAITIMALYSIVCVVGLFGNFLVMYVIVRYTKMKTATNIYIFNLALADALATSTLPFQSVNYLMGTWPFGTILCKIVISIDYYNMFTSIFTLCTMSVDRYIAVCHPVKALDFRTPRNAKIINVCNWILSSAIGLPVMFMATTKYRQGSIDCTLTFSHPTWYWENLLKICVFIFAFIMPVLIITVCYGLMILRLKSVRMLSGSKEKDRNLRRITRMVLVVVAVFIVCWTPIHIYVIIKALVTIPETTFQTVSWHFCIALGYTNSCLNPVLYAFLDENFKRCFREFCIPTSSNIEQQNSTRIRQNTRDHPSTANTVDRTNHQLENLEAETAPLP
# Outline: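 Membranes from CHO-K1 cells expressing the human μ opiate receptor (15-40 μg protein per well) were incubated with test compound, 1 nmol/l [3H]-naloxone and WGA-SPA beads in 50 mmol/l Tris-HCl with 0.06% BSA for 90 minutes at room temperature. Values are % inhibition of specific binding at 1 μmol/l.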
# [1] = molecular target: T2, serotonin (5-HT) reuptake (Rattus norvegicus, UniProt P31652); assay: Inhibition of serotonin (5HT) reuptake in synaptosomes from rat brain; type: biochemical
# T2 construct: synaptosomes are freshly isolated from areas of the rat brain; from tissue; host or cells: rat brain synaptosomes (P2 fraction)
# T2 sequence (P31652 whole entry): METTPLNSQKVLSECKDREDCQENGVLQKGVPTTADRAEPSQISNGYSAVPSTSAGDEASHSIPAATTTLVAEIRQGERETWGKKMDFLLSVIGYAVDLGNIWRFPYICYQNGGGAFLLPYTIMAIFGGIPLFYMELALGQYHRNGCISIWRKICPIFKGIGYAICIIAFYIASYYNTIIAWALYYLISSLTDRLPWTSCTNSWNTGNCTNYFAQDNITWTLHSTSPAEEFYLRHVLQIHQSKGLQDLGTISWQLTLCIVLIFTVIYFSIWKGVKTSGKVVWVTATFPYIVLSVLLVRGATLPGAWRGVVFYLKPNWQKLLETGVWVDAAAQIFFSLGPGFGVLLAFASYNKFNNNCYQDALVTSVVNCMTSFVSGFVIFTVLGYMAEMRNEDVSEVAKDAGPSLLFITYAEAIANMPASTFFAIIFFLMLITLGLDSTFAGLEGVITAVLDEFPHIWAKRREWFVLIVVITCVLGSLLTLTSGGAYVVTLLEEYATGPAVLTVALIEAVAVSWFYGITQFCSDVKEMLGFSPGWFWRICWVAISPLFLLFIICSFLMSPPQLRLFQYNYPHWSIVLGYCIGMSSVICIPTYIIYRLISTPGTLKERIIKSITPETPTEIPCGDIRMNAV
# Experimental: Binding data of the compounds on the μ opioid receptor and data on the inhibition of reuptake of serotonin (5-HT) are given in Table 1. The data for the μ receptor were measured at a test concentration of 1 μM, and those for the serotonin reuptake at 10 μM. The values are stated in % inhibition.
# Inhibition of Serotonin (5HT) Reuptake
# In order to be able to carry out these in vitro studies, synaptosomes are freshly isolated from areas of the rat brain. In each case a so-called “P2” fraction prepared in accordance with the instructions of Gray and Whittaker (E. G. Gray and V. P. Whittaker (1962) J. Anat. 76, 79-88) is prepared. For the NA uptake, these vesicular particles are isolated from the hypothalamus of male rat brains.
# A detailed description of the method can be found in the literature (M. Ch. Frink, H.-H. Hennies, W. Englberger, M. Haurand and B. Wilffert (1996) Arzneim.-Forsch./Drug Res. 46 (III), 11, 1029-1036).
# [2] = molecular target: T3, human bradykinin 1 receptor (B1R) (Homo sapiens, UniProt P46663); assay: Functional investigation on the human bradykinin 1 receptor (B1R), Ca2+ FLIPR assay in CHO K1 hB1R cells; type: cell-based; conditions: for B1R Ant. h [10 μM] % Inhibition: B1R antagonism human
# T3 construct: expressed in transfected cells; host or cells: CHO K1 cells
# T3 sequence (P46663 1-353): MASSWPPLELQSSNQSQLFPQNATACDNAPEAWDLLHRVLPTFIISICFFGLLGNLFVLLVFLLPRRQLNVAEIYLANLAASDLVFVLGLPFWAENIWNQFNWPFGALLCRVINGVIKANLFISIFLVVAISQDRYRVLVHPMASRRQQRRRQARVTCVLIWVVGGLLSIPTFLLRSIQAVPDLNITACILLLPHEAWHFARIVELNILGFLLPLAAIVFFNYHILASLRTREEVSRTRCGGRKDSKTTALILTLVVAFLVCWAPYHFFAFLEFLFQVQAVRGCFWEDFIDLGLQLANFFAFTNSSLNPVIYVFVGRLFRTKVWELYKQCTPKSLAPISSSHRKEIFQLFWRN
# Outline: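 Cells were dye-loaded with Fluo-4 plus probenecid, then test substances added and Ca2+ influx compared with agonist control for % activation. After 10-20 min, EC80 agonist (Lys-Des-Arg9-bradykinin human; Des-Arg9-bradykinin rat) was applied; suppression gave % inhibition and IC50 values.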
# [3] = 1.5 h, Table 2, test concentration 1 μM, read-out: μ receptor
# [4] = Table 2, test concentration 10 μM, read-out: 5-HT reuptake
# [5] = test substance 10 μM, Ca2+ FLIPR, CHO K1 hB1R cells
# [6] = test concentration of 1 μM, read-out: μ (binding on the μ opioid receptor, % inhibition)
# [7] = test concentration of 10 μM, read-out: 5-HT (inhibition of reuptake of serotonin, % inhibition)
# [8] = CHO-K1, B1R antagonism human, test substance 10 μM, Ca2+ FLIPR, CHO K1 hB1R cells, read-out: B1R Ant. h [10 μM] % Inhibition
# [9] = test concentration of 10 μM, 10 µM
Compound,"μ (binding on the μ opioid receptor, % inhibition) (human μ opiate receptor; test concentration of 1 μM)","5-HT (inhibition of reuptake of serotonin, % inhibition) ([1]; test concentration of 10 μM)",inhibition at 1 µM (human μ opiate receptor; [6]),"inhibition at 10 µM [1, 7]","inhibition at 10 µM [2, 8]",also measured
"CN(C)C(c1ccccc1)C1CCC(NC(=O)COCCN(C)S(=O)(=O)c2c(Cl)cc(Cl)cc2Cl)CC1 (stereo not shown) [Example 598, N-[4-(dimethylaminophenylmethyl)-cyclohexyl]-2-{2-[methyl-(2,4,6-trichlorobenzenesulfonyl)-amino]-ethoxy}-acetamide]",–,–,–,–,–,"inhibition at 1 µM (human μ opiate receptor; [3]): 91%; inhibition at 10 µM [1, 4]: 75%; B1R Ant. h [10 μM] % Inhibition [2, 5]: 86%"
Cc1cc(C)c(S(=O)(=O)N(C)CCOCC(=O)NCCC2CCC(C(c3ccc(F)cc3)N(C)C)CC2)c(C)c1 (stereo not shown) [Example 417],60%,91%,–,–,–,"B1R Ant. h [10 μM] % Inhibition [2, 5]: 100%"
"CN(C)C(c1ccccc1)C1CCC(NC(=O)COCC2CCCCN2S(=O)(=O)c2ccc(Cl)cc2)CC1 (stereo not shown) [Example 95, 2-((1-(4-chlorophenylsulfonyl)piperidin-2-yl)methoxy)-N-(4-((dimethylamino)(phenyl)methyl)cyclohexyl)acetamide]",–,–,91%,84%,22%,–
"O=C(COCCN(C1CC1)S(=O)(=O)c1c(Cl)cc(Cl)cc1Cl)NC1CCC(C(c2ccccc2)N2CCCCC2)CC1 (stereo not shown) [Example 602, 2-{2-[cyclopropyl-(2,4,6-trichlorobenzenesulfonyl)-amino]-ethoxy}-N-[4-(phenylpiperidin-1-ylmethyl)-cyclohexyl]-acetamide]",–,–,–,–,81%,"inhibition at 1 µM (human μ opiate receptor; [3]): 55%; inhibition at 10 µM [1, 4]: 51%"
"CN(C)C(c1ccccc1)C1CCC(NC(=O)COCC2CCCCN2S(=O)(=O)c2cccc(Cl)c2Cl)CC1 (stereo not shown) [Example 24, 2-((1-(2,3-dichlorophenylsulfonyl)piperidin-2-yl)methoxy)-N-(4-((dimethylamino)(phenyl)methyl)cyclohexyl)acetamide]",–,–,97%,67%,99%,–
"COc1cc(C)c(S(=O)(=O)N(C)CCOCC(=O)NCC2CCC(C(c3ccccc3)N(C)C)CC2)c(C)c1C (stereo not shown) [Example 40, N-((4-((dimethylamino)(phenyl)methyl)cyclohexyl)methyl)-2-(2-(4-methoxy-N,2,3,6-tetramethylphenylsulfonamido)ethoxy)acetamide]",–,–,96%,84%,99%,–
"COc1ccc(S(=O)(=O)N2CCCCC2COCC(=O)NC2CCC(C(c3ccccc3)N(C)C)CC2)cc1 (stereo not shown) [Example 154, N-(4-((dimethylamino)(phenyl)methyl)cyclohexyl)-2-((1-(4-methoxyphenylsulfonyl)piperidin-2-yl)methoxy)acetamide]",–,–,83%,90%,–,"inhibition at 10 µM ([2]; CHO-K1, read-out: B1R Ant. h [10 μM] % Inhibition): 69%"
"COc1ccc(S(=O)(=O)N2CCCCC2COCC(=O)NC2CCC(C(c3ccccc3)N(C)C)CC2)c(OC)c1 (stereo not shown) [Example 187, 2-((1-(2,4-dimethoxyphenylsulfonyl)piperidin-2-yl)methoxy)-N-(4-((dimethylamino)(phenyl)methyl)cyclohexyl)acetamide]",–,–,79%,81%,-6%,–
"COc1cc(C)c(S(=O)(=O)N(C)CCOCC(=O)NC2CCC(C(c3cccc(F)c3)N(C)C)CC2)c(C)c1C (stereo not shown) [Example 159, N-(4-((dimethylamino)(3-fluorophenyl)methyl)cyclohexyl)-2-(2-(4-methoxy-N,2,3,6-tetramethylphenylsulfonamido)ethoxy)acetamide]",–,–,85%,72%,91%,–
COc1cc(C)c(S(=O)(=O)N(CCOCC(=O)NC2CCC(C(c3ccccc3)N(C)C)CC2)Cc2ccccc2)c(C)c1 (stereo not shown) [Example 483],38%,65%,–,–,–,"B1R Ant. h [10 μM] % Inhibition [2, 5]: 34%"
"COc1ccc(S(=O)(=O)N2CCCCC2CCOCC(=O)NC2CCC(C(c3ccccc3)N(C)C)CC2)cc1 (stereo not shown) [Example 3, N-(4-((dimethylamino)(phenyl)methyl)cyclohexyl)-2-(2-(1-(4-methoxyphenylsulfonyl)piperidin-2-yl)ethoxy)acetamide]",–,–,99%,92%,69%,–
CN(C)C(c1ccccc1)C1CCC(NC(=O)COc2ccc(Cl)cc2)CC1 (stereo not shown) [Example 316],72%,59%,–,–,–,–
"CN(CCOCC(=O)NC1CCC(C(c2ccccc2)N2CCCCC2)CC1)S(=O)(=O)c1c(Cl)cc(Cl)cc1Cl (stereo not shown) [Example 601, 2-{2-[methyl-(2,4,6-trichlorobenzenesulfonyl)-amino]-ethoxy}-N-[4-(phenylpiperidin-1-yl-methyl)-cyclohexyl]-acetamide]",–,–,–,–,78%,"inhibition at 1 µM (human μ opiate receptor; [3]): 45%; inhibition at 10 µM [1, 4]: 75%"
"CN(C)C(c1ccccc1)C1CCC(NC(=O)COCCC2CCN(S(=O)(=O)c3ccccc3)CC2)CC1 (stereo not shown) [Example 124, N-(4-((dimethylamino)(phenyl)methyl)cyclohexyl)-2-(2-(1-(phenylsulfonyl)piperidin-4-yl)ethoxy)acetamide]",–,–,87%,89%,9%,–
COC(=O)C(=O)NCCC1CCC(C(c2ccccc2)N(C)C)CC1 (stereo not shown) [Example 579],11%,59%,–,–,–,–
COc1cc(C)c(S(=O)(=O)N(C)CCOCC(=O)NCC2CCC(C(CCc3ccccc3)N(C)C)CC2)c(C)c1C (stereo not shown) [Example 453],46%,89%,–,–,–,"B1R Ant. h [10 μM] % Inhibition [2, 5]: 97%"
CN(C)C(c1ccccc1)C1CCC(NC(=O)COCc2ccccc2)CC1 (stereo not shown) [Example 245],80%,59%,–,–,–,–
"COc1cc(C)c(S(=O)(=O)N(C)CCOCC(=O)NCC2CCC(C(c3cccc(F)c3)N(C)C)CC2)c(C)c1C (stereo not shown) [Example 160, N-((4-((dimethylamino)(3-fluorophenyl)methyl)cyclohexyl)methyl)-2-(2-(4-methoxy-N,2,3,6-tetramethylphenylsulfonamido)ethoxy)acetamide]",–,–,88%,80%,98%,–
CC(Oc1ccccc1)C(=O)NCCC1CCC(C(c2ccc(F)cc2)N(C)C)CC1 (stereo not shown) [Example 455],51%,74%,–,–,–,–
"CC(Oc1ccccc1)C(=O)NCC1CCC(C(c2ccc(Cl)cc2)N(C)C)CC1 (single isomer, unassigned) [Example 237]",81%,–,–,–,–,"5-HT (inhibition of reuptake of serotonin, % inhibition) [1, 9]: 52%"
CC(Oc1ccccc1)C(=O)NCC1CCC(C(CCc2ccccc2)N(C)C)CC1 (stereo not shown) [Example 495],44%,48%,–,–,–,–
CN(C)C(CCc1ccccc1)C1CCC(NC(=O)COc2ccc(Cl)cc2)CC1 (stereo not shown) [Example 564],24%,47%,–,–,–,–
CC(Oc1ccccc1)C(=O)NCCC1CCC(C(c2cccs2)N(C)C)CC1 (stereo not shown) [Example 315],72%,61%,–,–,–,–
CC(Oc1ccccc1)C(=O)NCC1CCC(C(c2ccc(F)cc2)N(C)C)CC1 (stereo not shown) [Example 236],81%,63%,–,–,–,–
CN(C)C(c1ccc(F)cc1)C1CCC(NC(=O)COCc2ccccc2)CC1 (stereo not shown) [Example 529],37%,59%,–,–,–,–
CC(Oc1ccccc1)C(=O)NC1CCC(C(CCc2ccccc2)N(C)C)CC1 (stereo not shown) [Example 545],–,–,–,–,–,"μ (binding on the μ opioid receptor, % inhibition) (human μ opiate receptor; test concentration of 1 μM, 1 µM): 30%; 5-HT (inhibition of reuptake of serotonin, % inhibition) [1, 9]: 52%"
